This is an account of results in PMC10623575, “Discovery of Potent and Selective CB2 Agonists Utilizing a Function-Based Computational Screening Protocol” (ACS Chemical Neuroscience, 2023).

In assay [1] the target is T1, CB2 receptor (Homo sapiens, UniProt P34972).
T1 construct: expressed in transfected cells
Put plainly: Calcium mobilization assay, antagonist mode (CP55940 challenge), CHO expressing CB2. Format: cell-based. To be noted: for SI, selectivity index for the CB2, SI = IC50(CB1)/IC50(CB2): antagonist mode. As to the method: (§1) Chinese hamster ovarian (CHO) cells collected from the American Type Culture Collection were maintained in Ham’s F-12K (Kaighn’s) supplemented with 100 mg/L streptomycin, 100 mg/L penicillin, and 10% fetal bovine serum (FBS) in a humidified atmosphere of 5% CO2 at 37 °C. CHO cells were co-transfected with plasmids encoding CB1 or CB2 and Gα16 by electroporation. To establish stable cell lines, transfected cells were seeded on 10 cm dishes with 40 μg/mL blasticidin and 1 mg/mL G418 in culture medium after 24 h. The selection medium was substituted once every 3 days until colonies formed. A solitary colony was obtained, propagated, and assessed using a calcium mobilization assay to verify the function and expression of the transfected genes.
(§2) 3 × 10^4 cells/well were employed to seed cells onto 96-well plates, which were subsequently incubated throughout the night. Cells were then treated with 2 μM Fluo-4 AM in HBSS (0.3 mM Na2HPO4, 5.4 mM KCl, 4.2 mM NaHCO3, 0.4 mM KH2PO4, 0.5 mM MgCl2, 1.3 mM CaCl2, 137 mM NaCl, 0.6 mM MgSO4, 250 μM sulfinpyrazone, and 5.6 mM D-glucose, pH 7.4) for 45 min at 37 °C. […] Meanwhile, the change of intracellular calcium was measured at an excitation wavelength of 525 and 485 nm. For antagonist mode, the extra dye was washed out and 50 μL of HBSS with test compounds, DMSO (negative control), or AM630 (positive control) was introduced. […] The change of intracellular calcium was captured at an excitation wavelength of 525 and 485 nm. To be noticed, each experiment has been independently replicated three times, with three repetitions and eight gradients each time.
(§3) The collected data were processed with GraphPad Prism software (GraphPad). […] Means ± SEM were computed utilizing this software. The analyses were evaluated by the Student t test. When the p value is smaller than 0.05, the result is statistically significant.

The target in a further assay is CB1 receptor (Homo sapiens, UniProt P21554). Description: Calcium mobilization assay, antagonist mode (CP55940 challenge), CHO expressing CB1. Format: cell-based. As to the method: as §1, §2, §3
Chain of CB1 receptor (P21554 whole entry): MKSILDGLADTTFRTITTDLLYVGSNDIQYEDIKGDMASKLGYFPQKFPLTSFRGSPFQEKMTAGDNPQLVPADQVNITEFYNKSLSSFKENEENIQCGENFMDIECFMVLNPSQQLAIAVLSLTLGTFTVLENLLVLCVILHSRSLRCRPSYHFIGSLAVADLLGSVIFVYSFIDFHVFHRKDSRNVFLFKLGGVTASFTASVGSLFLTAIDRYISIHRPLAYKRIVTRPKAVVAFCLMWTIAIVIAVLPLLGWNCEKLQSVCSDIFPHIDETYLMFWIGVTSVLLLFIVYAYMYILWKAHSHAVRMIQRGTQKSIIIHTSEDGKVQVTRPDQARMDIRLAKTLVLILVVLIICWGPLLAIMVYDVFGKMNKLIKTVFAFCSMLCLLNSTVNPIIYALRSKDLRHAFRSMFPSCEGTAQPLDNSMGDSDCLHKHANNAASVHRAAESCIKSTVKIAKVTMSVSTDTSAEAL
Assay [2] has as its target T1, CB2 receptor. To be noted: representative ligands for active CB2 (Table S7); ref SI refs 3, 6, 7, 10, 11; read-out: Experimental Ki, Active CB2; cited from earlier work.
The mark [3] stands for this setting: antagonist activity, CHO expressing CB2, three independent assays, mean ± SEM, read-out: CB2 IC50.
Setting [4] is: single independent experiment, replicate 1, read-out: CB2 antagonist(μM) replicate 1.
The mark [5] stands for this setting: single independent experiment, replicate 2, read-out: CB2 antagonist(μM) replicate 2.
[6] abbreviates: single independent experiment, replicate 3, read-out: CB2 antagonist(μM) replicate3.
Where [7] appears, read: antagonist activity, CHO expressing CB1, read-out: CB1 IC50.

Read-outs that look alike come from different tables or passages of the source.

T1 sequence (P34972 whole entry): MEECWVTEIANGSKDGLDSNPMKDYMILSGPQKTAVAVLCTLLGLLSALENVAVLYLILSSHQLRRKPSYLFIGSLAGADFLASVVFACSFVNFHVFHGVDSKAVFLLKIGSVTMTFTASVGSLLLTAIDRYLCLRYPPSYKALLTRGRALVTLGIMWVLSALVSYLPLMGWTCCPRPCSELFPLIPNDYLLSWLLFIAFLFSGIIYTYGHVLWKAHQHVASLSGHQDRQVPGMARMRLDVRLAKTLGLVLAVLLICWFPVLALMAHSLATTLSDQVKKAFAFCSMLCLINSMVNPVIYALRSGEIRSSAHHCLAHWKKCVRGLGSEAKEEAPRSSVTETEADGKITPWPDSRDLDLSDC

Regarding `CCCS(=O)(=O)Oc1cc(C=C2SC(=O)N(CC(C)C)C2=O)ccc1OC` [Compound 40, 5-((3-Isobutyl-2,4-dioxothiazolidin-5-ylidene)methyl)-2-methoxyphenyl Propane-1-sulfonate], the IC50 at CB2 receptor [1] (CB2 IC50, antagonist activity, CHO expressing CB2, three independent assays, mean ± SEM) is 2.99 ± 1.42 µM; at CB2 receptor [1] (CB2 antagonist(μM) replicate 1, single independent experiment, replicate 1), 2.64 µM; on CB2 receptor [1] (CB2 antagonist(μM) replicate 2, single independent experiment, replicate 2), 5.6 µM; on CB2 receptor [1] (CB2 antagonist(μM) replicate3, single independent experiment, replicate 3), 0.728 µM; at CB1 receptor, > 10 µM. Moreover, the “SI, selectivity index for the CB2, SI = IC50(CB1)/IC50(CB2)” value (“SI, selectivity index for the CB2” below) on CB2 receptor [1] is > 3.

With `CCCCCn1cc(C(=O)C2C(C)(C)C2(C)C)c2ccccc21` [UR-144], the Ki at CB2 receptor [2] was 1.8 nM.

With `CCCS(=O)(=O)Oc1cc(C=C2SC(=O)N(C(C)C)C2=O)ccc1OC` [Compound 39, 5-((3-Isopropyl-2,4-dioxothiazolidin-5-ylidene)methyl)-2-methoxyphenyl Propane-1-sulfonate], the IC50 on CB2 receptor [1] (setting [3]) is 0.33 ± 0.09 µM; at CB2 receptor [1] (setting [4]) it was 0.445 µM; at CB2 receptor [1] (setting [5]) it was 0.115 µM; on CB2 receptor [1] (setting [6]), 0.44 µM; on CB1 receptor (setting [7]) it was > 10 µM. Moreover, the “SI, selectivity index for the CB2” value at CB2 receptor [1] was 23.

With `COc1ccc(C=C2SC(=O)N(C(C)C)C2=O)cc1OC(=O)CCCCl` [Compound 38, 5-((3-Isopropyl-2,4-dioxothiazolidin-5-ylidene)methyl)-2-methoxyphenyl 4-Chlorobutanoate], the IC50 at CB2 receptor [1] (setting [3]) was 0.4 ± 0.16 µM; on CB2 receptor [1] (setting [4]) it was 0.715 µM; at CB2 receptor [1] (setting [5]), 0.256 µM; on CB2 receptor [1] (setting [6]), 0.224 µM; at CB1 receptor (setting [7]), > 10 µM. Further, the “SI, selectivity index for the CB2” value on CB2 receptor [1] is >25.
